Data: PubChem BioAssay AID1159565 (GlaxoSmithKline (GSK), 2015)
Active and inactive are the calls of the source. How the calls were made is not given here.

Tested on: T. cruzi-infected H9C2 cardiomyocytes, high-content imaging
Test: intracellular T. cruzi amastigote inhibition, imaging, H9C2 host cardiomyocytes, host toxicity (AID 1159565);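 further: infected cells incubated 72 h after plating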
[1] = measured here: H9C2 host cell toxicity
[2] = measured here: amastigotes per cell

O=C(c1cccc(Cl)c1Cl)N1CCn2c1nc(-c1ccncc1)cc2=O
IC50: 320 nM | IC50 [1]: > 50000 nM | IC50 [2]: 320 nM

COc1cc(Cl)c(C)cc1NC(=O)c1ccc([N+](=O)[O-])s1
IC50: 630 nM | IC50 [1]: 2500 nM | IC50 [2]: 500 nM

CS(=O)(=O)NC1CCC(Oc2cc3cnccc3cc2-c2ccsc2)CC1 (centres undefined)
IC50: 160 nM | IC50 [1]: > 50000 nM | IC50 [2]: 100 nM

COc1ccc(Cl)cc1CC(=O)Nc1n[nH]c(-c2ccccn2)n1
IC50: > 50000 nM (inactive) | IC50 [1]: > 50000 nM | IC50 [2]: 10000 nM

COc1ccc2ncc(F)c(CCN3CC[C@@H](NC(=O)c4cc5c(s4)CCC5)[C@@H](O)C3)c2n1
IC50: 130 nM | IC50 [1]: 130 nM | IC50 [2]: 50 nM

Cc1[nH]nc(C(F)(F)F)c1NC(=O)CCn1cc(Cl)c([N+](=O)[O-])n1
IC50: 25000 nM | IC50 [1]: > 50000 nM | IC50 [2]: 6300 nM

Cc1cc(N(C)C)nc(Nc2ccccc2C)n1
IC50: 790 nM | IC50 [1]: > 50000 nM | IC50 [2]: 500 nM

CN(Cc1nc2ccccc2s1)C(=O)C=Cc1cc2ccccc2o1
IC50: 790 nM | IC50 [1]: > 50000 nM | IC50 [2]: 1000 nM

CC(C)c1sc(Cl)nc1C(=O)NCCc1nc(C(=O)Nc2ccc3c(c2)OCO3)cs1
IC50: 1000 nM | IC50 [1]: > 50000 nM | IC50 [2]: 630 nM

Cc1nn(-c2ccccc2)nc1CNC(=O)CN(Cc1ccccn1)Cc1ccccn1
IC50: 10000 nM | IC50 [1]: 63000 nM | IC50 [2]: 3200 nM

O=C(NCC1CCCCN1C(=O)c1cccc2ccccc12)c1ccccc1 (centres undefined)
IC50: 5000 nM | IC50 [1]: > 50000 nM | IC50 [2]: 3200 nM

CC(C)(C)C(=O)Nc1cc(C2CC2)nn1-c1nc2c(c(=O)[nH]1)CCCC2
IC50: 500 nM | IC50 [1]: 2000 nM | IC50 [2]: 130 nM

O=C(Cn1cnc2cc([N+](=O)[O-])ccc2c1=O)NCCc1ccc(Cl)cc1Cl
IC50: 400 nM | IC50 [1]: > 50000 nM | IC50 [2]: 200 nM

O=C(NCCNc1noc(-c2ccc([N+](=O)[O-])cc2)n1)c1ccc(Cl)cc1
IC50: > 50000 nM (inactive) | IC50 [1]: > 50000 nM | IC50 [2]: 1300 nM

O=C(NCCCn1cnc2ccccc21)c1ccc(NC(=O)c2ccco2)cc1
IC50: 2000 nM | IC50 [1]: > 50000 nM | IC50 [2]: 1300 nM

CC1(Oc2cncc(Cl)c2)CCN(Cc2cc3ccccc3[nH]2)C1 (centres undefined)
IC50: 1600 nM | IC50 [1]: 10000 nM | IC50 [2]: 1000 nM

Cc1nc2c(-c3nc(-c4ccc(N)cc4)n[nH]3)cccn2c1C
IC50: > 50000 nM (inactive) | IC50 [1]: 10000 nM | IC50 [2]: > 50000 nM

CN1C(=O)c2ccccc2Sc2ccc(NC(=O)NCc3ccco3)cc21
IC50: 13000 nM | IC50 [1]: 25000 nM | IC50 [2]: 6300 nM

Cc1ccccc1CNC(=O)CN(Cc1ccccn1)Cc1ccccn1
IC50: 16000 nM | IC50 [1]: > 79000 nM | IC50 [2]: 6300 nM

O=C(NCCc1csc(-c2ccc(F)cc2)n1)c1cccs1
IC50: 400 nM | IC50 [1]: > 50000 nM | IC50 [2]: 250 nM

O=C(CC1(O)C(=O)N(Cc2ccccc2)c2ccc(Br)cc21)c1cccnc1 (centres undefined)
IC50: 25000 nM | IC50 [1]: 3200 nM | IC50 [2]: 20000 nM

COc1ccc(S(=O)(=O)Nc2ccc(CN3CCN(C(=O)c4cccc(C#N)c4)CC3)cc2)cc1
IC50: 1000 nM | IC50 [1]: > 50000 nM | IC50 [2]: 790 nM

Cc1cc(NC(=O)c2ccc([N+](=O)[O-])s2)ccc1Br
IC50: 400 nM | IC50 [1]: 2500 nM | IC50 [2]: 250 nM

Cn1ccnc1-c1nc(NCc2ccccc2Cl)cc(C2CC2)n1
IC50: 790 nM | IC50 [1]: 630 nM | IC50 [2]: 790 nM

Cc1cc(=O)n2nc(Oc3ccc(C#N)cc3Cl)sc2n1
IC50: 32000 nM | IC50 [1]: 32000 nM | IC50 [2]: 25000 nM

CS(=O)(=O)N1CCC(Nc2ncc(Br)c(Nc3cccc(F)c3C(N)=O)n2)CC1
IC50: 1000 nM | IC50 [1]: 160 nM | IC50 [2]: 400 nM

CN(C)S(=O)(=O)c1ccc(Cl)c(C(=O)Nc2nc(-c3ccccn3)cs2)c1
IC50: 2000 nM | IC50 [1]: 6300 nM | IC50 [2]: 1300 nM

NC(=O)c1ccc(-c2cccc(OCCN3CCN(C4CCCCC4)CC3)c2)cc1
IC50: 1600 nM | IC50 [1]: > 50000 nM | IC50 [2]: 790 nM
